The numbers were not newly measured in patent publication US20200276090A1, “TOPICAL PRODUCTS WITH A BIPHASIC SYSTEM” (CMED AESTHETICS s.r.l., priority 2017, published 2020), which cites them from elsewhere.

For the data set the following is noted: after 90 days.

Structures are written as SMILES. Where two headings read alike, the source gives them in different places.

For the molecule `O=C(O)C(Cl)(Cl)Cl` [TCA, trichloroacetic acid], the “Degradation of TCA” value was 12.6% (TCA in aqueous solution alone); 2-3% (in the presence of a high percentage of stabilizing agents, on average); 4-5% (in the presence of a low percentage of stabilizing agents, on average).
